From ChEMBL document CHEMBL4627246, “Pyroglutamide-Based P2X7 Receptor Antagonists Targeting Inflammatory Bowel Disease” (J Med Chem, 2020)

How the values were obtained:
Type in all cases: cell-based
[1] = system: IGROV-1; assay: Cytotoxicity against human IGROV1 cells assessed as effect on cell growth at 10 uM incubated for 48 hrs by sulforhodamine B assay; details: igrov-1, 48 h
[2] = system: PC-3; assay: Cytotoxicity against human PC3 cells assessed as effect on cell growth at 10 uM incubated for 48 hrs by sulforhodamine B assay; details: pc-3, 48 h
[3] = system: UO-31; assay: Cytotoxicity against human UO31 cells assessed as effect on cell growth at 10 uM incubated for 48 hrs by sulforhodamine B assay; details: uo-31, 48 h
[4] = system: NCI-H23; assay: Cytotoxicity against human NCI-H23 cells assessed as effect on cell growth at 10 uM incubated for 48 hrs by sulforhodamine B assay; details: nci-h23, 48 h
[5] = system: RPMI-8226; assay: Cytotoxicity against human RPMI8226 cells assessed as effect on cell growth at 10 uM incubated for 48 hrs by sulforhodamine B assay; details: rpmi-8226, 48 h
[6] = system: U-251; assay: Cytotoxicity against human U251 cells assessed as effect on cell growth at 10 uM incubated for 48 hrs by sulforhodamine B assay; details: u-251, 48 h
[7] = system: BT-549; assay: Cytotoxicity against human BT549 cells assessed as effect on cell growth at 10 uM incubated for 48 hrs by sulforhodamine B assay; details: bt-549, 48 h
[8] = system: NCI/ADR-RES; assay: Cytotoxicity against human NCI/ADR-RES cells assessed as effect on cell growth at 10 uM incubated for 48 hrs by sulforhodamine B assay
[9] = system: LOX IMVI; assay: Cytotoxicity against human LOXIMVI cells assessed as effect on cell growth at 10 uM incubated for 48 hrs by sulforhodamine B assay
[10] = system: SF-268; assay: Cytotoxicity against human SF268 cells assessed as effect on cell growth at 10 uM incubated for 48 hrs by sulforhodamine B assay; details: sf-268, 48 h
[11] = system: CAKI-1; assay: Growth inhibition of human Caki1 cells assessed as growth percentage at 10 uM incubated for 48 hrs by sulforhodamine B assay; details: caki-1, 48 h
[12] = system: SF-295; assay: Cytotoxicity against human SF295 cells assessed as effect on cell growth at 10 uM incubated for 48 hrs by sulforhodamine B assay; details: sf-295, 48 h
[13] = system: HT-29; assay: Cytotoxicity against human HT-29 cells assessed as effect on cell growth at 10 uM incubated for 48 hrs by sulforhodamine B assay; details: ht-29, 48 h
[14] = system: HCT-15; assay: Cytotoxicity against human HCT15 cells assessed as effect on cell growth at 10 uM incubated for 48 hrs by sulforhodamine B assay; details: hct-15, 48 h
[15] = system: UACC-257; assay: Cytotoxicity against human UACC257 cells assessed as effect on cell growth at 10 uM incubated for 48 hrs by sulforhodamine B assay; details: uacc-257, 48 h
[16] = system: MDA-MB-468; assay: Cytotoxicity against human MDA-MB-468 cells assessed as effect on cell growth at 10 uM incubated for 48 hrs by sulforhodamine B assay; details: mda-mb-468, 48 h
[17] = system: SN12C; assay: Cytotoxicity against human SN12C cells assessed as effect on cell growth at 10 uM incubated for 48 hrs by sulforhodamine B assay
[18] = system: T47D; assay: Cytotoxicity against human T47D cells assessed as effect on cell growth at 10 uM incubated for 48 hrs by sulforhodamine B assay
[19] = system: KM12; assay: Cytotoxicity against human KM12 cells assessed as effect on cell growth at 10 uM incubated for 48 hrs by sulforhodamine B assay; details: km12, 48 h
[20] = system: SNB-19; assay: Cytotoxicity against human SNB19 cells assessed as effect on cell growth at 10 uM incubated for 48 hrs by sulforhodamine B assay; details: snb-19, 48 h

Measured: Activity

CN1C(=O)C(C)(C)C[C@H]1C(=O)NCc1cccc(C(F)(F)F)c1Cl
Non-Toxic: all assays above

O=C(NCc1ccc(Cl)cc1Cl)[C@@H]1CCC(=O)N1c1cncs1
Non-Toxic: all assays above

O=C(NCc1ccc(Cl)cc1Cl)[C@@H]1CCC(=O)N1c1cscn1
Non-Toxic: all assays above

CN(Cc1ccccc1)C(=O)[C@@H]1CCC(=O)N1Cc1ccc(Cl)cc1Cl
Non-Toxic: all assays above

COc1ccc(NC(=O)[C@@H]2CCC(=O)N2)cc1OC
Non-Toxic: all assays above

CN(C)/C=C1\C[C@H]2C(=O)N(/C(=C/N(C)C)c3ccncc3)C(N(C)C)N2C1=O (stereo not given in full)
Non-Toxic: all assays above

COc1cc(CNC(=O)[C@@H]2CCC(=O)N2)cc(OC)c1OC
Non-Toxic: all assays above

CN1CCN(/C=C2\C[C@@H](C(=O)NCc3ccc(Cl)cc3Cl)N(c3cccs3)C2=O)CC1
Non-Toxic: all assays above

O=C(NCc1ccc(Cl)cc1Cl)[C@@H]1CCC(=O)N1c1ccsc1
Non-Toxic: all assays above

COc1ccccc1CN1C(=O)[C@@H]2C/C(=C\N(C)C)C(=O)N2C1N(C)C (stereo not given in full)
Non-Toxic: all assays above

O=C1N[C@H](C(=O)NCc2ccc(Cl)cc2Cl)CO1
Non-Toxic: all assays above

COc1cc(CN/C=C2\C[C@@H](C(=O)NCc3ccc(Cl)cc3Cl)NC2=O)cc(OC)c1OC
Non-Toxic: all assays above

COc1ccc(CN2C(=O)[C@@H]3C/C(=C\N(C)C)C(=O)N3C2N(C)C)c(OC)c1 (stereo not given in full)
Non-Toxic: all assays above

O=C(NCCc1ccccc1)[C@@H]1CCC(=O)N1Cc1ccc(Br)cc1
Non-Toxic: all assays above
